In patent US20210169690A1, “Self-Retaining Implantable Drug Delivery Device” (GoldenBiotech, LLC, priority 2019, published 2021):

Assay: Visual examination of physical appearance and mixing of drug-loaded silicone polymer matrix test samples
Assay type: physicochemical
Conditions: 15% and 20% Travoprost test samples
Excerpt: To test the loading capacity of a silicone elastomer polymer matrix for a prostaglandin analogue, polymer matrix with different amounts and types of a prostaglandin analogue were made and the physical and mechanical properties of the resulting polymerized drug-loaded matrix were characterized (Tables 1-3). These polymer matrix test samples were made by mixing together a prostaglandin analogue, a liquid cyclic vinyl siloxane elastomer, a crosslinker, and a catalyst using a high-speed mixer and then heated the capped container at 70° C. for 24 hours to cure the mixture. A filler, such as a fumed silica, was also used to provide sufficient mechanical strength to the polymerized matrix. In addition, an inhibitor was used to slow the crosslinking reaction to a workable rate. The resulting thin-disc-shaped drug-loaded polymer matrix was allowed to cool to room temperature and then placed in 4° C. for 24 hours to increase stiffness of the material. The physical appearance of each drug-loaded polymer matrix test sample was examined visually and its mechanical properties analyzed using a durometer.

With `CC(C)OC(=O)CCC/C=C\C[C@@H]1[C@@H](/C=C/[C@@H](O)COc2cccc(C(F)(F)F)c2)[C@H](O)C[C@@H]1O` [Travoprost] the “physical examination of test samples” value was “exhibited more elasticity but had surfaces with tacky attributes and a consistency that was not fully homogeneous”.
